# Assay results from patent US4156016A, “Indole compounds and process for their preparation” (Hoffmann-La Roche Inc., priority 1977, dated 1979).
# Columns and labels:
# [1] = tested on: arachidonic acid induced diarrhea; experiment: Arachidonic acid diarrhea prevention (mice); assay type: in vivo, Carworth Farm CF-1 male mice
# Method: Carworth Farm CF-1 male mice weighing 18-20 grams were administered the test compound by either the oral or intraperitoneal route one hour prior to the intraperitoneal administration of 4 mg/kg of arachidonic acid (Hoffmann-La Roche Inc.). […] The diarrhea was graded on paper towels as follows: 0=solid pellet or no bowel movement; 1=slightly soft pellet with little or no wet ring formation; 2=moderately soft pellet with definite wet ring formation; 3=soft pellet with large wet ring formation; and 4=amorphous pellet with very large wet ring formation.
# The calculation of the ED50 was made according to the method of Miller et al., Proc. Soc.
# [2] = tested on: serum PGF2α; experiment: Inhibition of prostaglandin formation: serum PGF2α by radioimmunoassay (rats); assay type: in vivo, male rats; conditions: rats; for serum PGF2α ED50: 60 min; for ED50: Rattus norvegicus, 1 h
# [3] = tested on: Collagen-Induced Platelet Aggregation; experiment: Inhibition of collagen-induced platelet aggregation in human platelet-rich plasma; assay type: cell-based
# Method: (§1) Venous blood was collected from human volunteers in siliconized 20 ml. […] Platelet rich plasma (PRP) was separated from the red blood cells by centrifugation at 180×g for 15 minutes at room temperature. Platelet poor plasma (PPP) was prepared by centrifuging PRP at 1000×g for 2 minutes.
# (§2) Techniques established by Born et al., J. Physiol. […] PRP (1 ml.) was added to a siliconized cuvette containing a siliconized stirring bar and placed in a densitometer maintained at 37° C. and stirred at 1000 RPM. Various concentrations of test compounds were added in 50 μl of saline and incubated with PRP for 5 minutes. Aggregation was initiated by the addition of sufficient concentrations of ADP (Sigma Chemical Co.), epinephrine HCl (Parke, Davis & Co., Detroit, Michigan), or human mammary gland collagen (obtained from Roosevelt Hospital, N.Y.) to give about 60% of maximum aggregation response. The light transmission through PPP was used to determine maximum response. The percent inhibition of aggregation caused by the drug was calculated from the strip chart recordings at the point of maximum collagen response.
# [4] = tested on: ADP induced aggregation; experiment: Inhibition of ADP-induced platelet aggregation (second wave) in human platelet-rich plasma; assay type: cell-based; conditions: incubation in human citrated platelet-rich plasma
# Method: as §1, §2
# [5] = tested on: Epinephrine induced aggregation; experiment: Inhibition of epinephrine-induced platelet aggregation (second wave) in human platelet-rich plasma; assay type: cell-based; conditions: incubation in human citrated platelet-rich plasma
# Method: as §1, §2
# [6] = tested on: Collagen-Induced Platelet Aggregation; experiment: Effect of compounds in whole blood: collagen-induced platelet aggregation after incubation in whole blood; assay type: cell-based, human; conditions: incubation in whole blood
# Method: Aliquots of citrated human blood (10 ml.) were exposed to different concentrations of the "nitrile" by mechanically shaking at room temperature for 5 minutes.
# [7] = Acute toxicity in mice; conditions: mouse, in vivo
# Method: CF-IS mice of both sexes weighing 17-25 grams were used. The compounds were ground in a mortar and suspended in 5% gum acacia for oral or intraperitoneal administration. Eight to ten mice were used per dose level. […] The LD50 was calculated by the method of Miller et al., Proc. Soc. Exp. Biol. Med., 57, pages 261-264 (1944).
# [8] = Gastric ulcer induction (rats); parameters: species or system male Wistar rats; conditions: rat, in vivo, po, rats; read-out: Ulcer incidence ED50
# Method: The test is a modification of that described by Brodie et al., Gastroenterology, 53, pages 604-610 (1967). Male Wistar rats (Royal Hart Laboratories) were deprived of food for 18 hours prior to testing. Tap water was permitted ad libitum. Test compounds were administered orally four hours to autopsy. The rats were sacrificed under ethyl ether anesthesia, opened along the ventral midline and the stomachs removed. The stomach was divided along the lesser curvature, everted, rinsed in saline, and examined for the presence of focal hemorrhage. Ulcers were rated on an all or none basis for incidence and, in addition, each stomach is graded for severity of ulcers formed. Ulcer scores: 0=none, 1=trace, 2=mild, 3=moderate, and 4=severe. The results of the ulcer scores obtained were subjected to statistical analysis by the student `t` test.
# [9] = tested on: biosynthesis of thromboxanes; conditions: cited from earlier work
# [10] = tested on: platelet prostaglandin formation; conditions: cited from earlier work
# [11] = tested on: platelet aggregation; conditions: cited from earlier work
# [12] = tested on: thromboxanes; conditions: submicrogram concentrations of PGE2; cited from earlier work
# [13] = tested on: human blood-platelet aggregation; experiment: Inhibition of human blood-platelet aggregation (general statement)
# [14] = tested on: prostaglandin formation; experiment: Inhibition of prostaglandin formation (general statement)
# [15] = Ulcerogenicity (general statement)
# [16] = Toxicity (general statement)
# [17] = incubation in human citrated platelet-rich plasma, read-out: IC50 collagen
structure (smiles),measurement,setting,value
"CC(=O)Oc1ccccc1C(=O)O [Aspirin, reference compound]",arachidonic acid induced diarrhea ED50,[1]; p.o.,1.3 mg/kg
same,serum PGF2α ED50,[2]; i.p.,10 mg/kg
same,serum PGF2α ED50,[2]; p.o.,10 mg/kg
same,IC50,[3]; [17],30 µM
same,IC50,[4],30 µM
same,IC50,[5],17 µM
same,IC50,[6],1.5 µM
same,LD50 at 120 h,[7]; po,> 1000 mg/kg
same,TD50 at 4 h,[8],49 mg/kg
same,inhibition of the biosynthesis of thromboxanes (in words),[9],inhibits the biosynthesis of thromboxanes
same,inhibition of platelet prostaglandin formation (in words),[10],known inhibitors of platelet prostaglandin formation
"CCCCCC[C@H](O)/C=C/[C@H]1[C@H](O)CC(=O)[C@@H]1CCCCCCC(=O)O [ω-homo PGE1, (11α,13E,15S)-11,15-dihydroxy-20-methyl-9-oxoprost-13-en-1-oic acid]",inhibition of platelet aggregation (in words),[11],demonstrated to inhibit platelet aggregation
"CCCCC[C@H](O)/C=C/[C@H]1[C@H](O)CC(=O)[C@@H]1CCCCCCC(=O)O [PGE1, (11,13E,15S)-11,15-dihydroxy-9-oxoprost-13-en-1-oic acid]",inhibition of platelet aggregation (in words),[11],demonstrated to inhibit platelet aggregation
"CCCCC[C@H](O)/C=C/[C@H]1[C@H](O)CC(=O)[C@H]1CCCCCCC(=O)O [Example 8-iso-PGE1, (8β,11α,13E,15S)-11,15-dihydroxy-9-oxoprost-13-en-1-oic acid]",inhibition of platelet aggregation (in words),[11],demonstrated to inhibit platelet aggregation
"COc1ccc2c(c1)c(CC(=O)O)c(C)n2C(=O)c1ccc(Cl)cc1 [Indomethacin, reference compound]",ED50,"[1]; Mus musculus, po",0.8 mg/kg
same,ED50,[2]; ip,< 1 mg/kg
same,ED50,[2]; po,1 mg/kg
same,IC50,[3]; [17],1 µM
same,IC50,[4],0.1 µM
same,IC50,[5],2 µM
same,IC50,"[6]; Homo sapiens, Platelet",0.4 µM
same,LD50 at 120 h,[7]; ip,193 mg/kg
same,LD50 at 120 h,[7]; po,430 mg/kg
same,TD50 at 4 h,[8],3 mg/kg
same,inhibition of platelet prostaglandin formation (in words),[10],known inhibitors of platelet prostaglandin formation
CCCCC[C@H](O)/C=C/[C@H]1[C@H](O)CC(=O)[C@@H]1C/C=C\CCCC(=O)O [PGE2],potentiation of biological effects of thromboxanes,[12],≤ 700%
"NC(=O)c1[nH]c2ccc(C(O)(C(F)(F)F)C(F)(F)F)cc2c1-c1ccccc1 [amide, 3-Phenyl-5-[2,2,2-trifluoro-1-hydroxy-1-(trifluoromethyl)ethyl]indole-2-carboxamide]",IC50,"[3]; Homo sapiens, Platelet, Table 7, read-out: Inhibition of collagen-induced platelet aggregation, Activity IC50",3 µM
same,inhibition of human blood-platelet aggregation (in words),[13],inhibit prostaglandin formation and human blood-platelet aggregation
same,inhibition of prostaglandin formation (in words),[14],inhibit prostaglandin formation
same,ulcerogenicity (in words),[15],non-ulcerogenic
same,toxicity (in words),[16],low in toxicity
